pKi: −log10 of the molar value.
The compounds below were run against T1, Adenosine deaminase (Bos taurus, UniProt P56658) (assay: Binding affinity (Ki) at calf intestinal Adenosine deaminase).
T1 sequence (P56658 whole entry): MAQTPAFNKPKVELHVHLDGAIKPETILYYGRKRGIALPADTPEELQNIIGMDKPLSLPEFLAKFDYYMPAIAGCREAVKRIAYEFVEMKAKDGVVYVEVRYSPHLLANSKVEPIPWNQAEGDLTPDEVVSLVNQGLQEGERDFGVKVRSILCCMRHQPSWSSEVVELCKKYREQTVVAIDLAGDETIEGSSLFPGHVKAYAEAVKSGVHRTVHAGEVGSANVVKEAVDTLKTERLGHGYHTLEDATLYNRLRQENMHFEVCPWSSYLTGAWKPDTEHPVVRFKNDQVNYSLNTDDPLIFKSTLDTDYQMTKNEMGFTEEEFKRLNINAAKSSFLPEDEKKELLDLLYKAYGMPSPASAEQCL
CCCCCC[C@H]([C@@H](O)CO)n1cnc2c(N)ncnc21 gave a pKi of 7.25.
With CCCCCC[C@H]([C@@H]1CO1)n1cnc2c(N)ncnc21 the pKi was 6.05.
With CCCCCC[C@H](CO)n1cnc2c(N)ncnc21 the pKi was 7.33.
For CCCCCC[C@H](CF)n1cnc2c(N)ncnc21, the pKi was 5.80.
In the case of CCCCCC[C@H]([C@H](C)O)n1cnc2c(N)ncnc21 [(+)-EHNA], the pKi was 8.70.

What follows are compounds tested against T1, Adenosine deaminase (assay: Binding affinity (Ki) at calf intestinal adenosine deaminase.).
CCCCCC[C@H](CCl)n1cnc2c(N)ncnc21 gave a pKi of 6.49.
In the case of CCCCCC[C@H](CBr)n1cnc2c(N)ncnc21, the pKi was 6.22.
For CCCCCC[C@@H]1[C@@H](O)C[n+]2cnc(N)c3ncn1c32, the pKi was 6.00.
Compound CCCCCC[C@H](CN=[N+]=[N-])n1cnc2c(N)ncnc21 has a pKi of 5.89.
CCCCCC[C@@H]([C@@H](C)O)n1cnc2c(N)ncnc21 [EHNA] showed a pKi of 8.40.
